Data: US6838580B2, “Opioid derivative” (Teikoku Seiyaku Co., Ltd., priority 2002, dated 2005)
Entries after “also recorded” stand apart in the source; their conditions may differ. Marks after values point to notes of the source that are not given here.

Assays:
[1] = molecular target: T1, δ-opioid receptor (Mus musculus, UniProt P32300); assay: Mouse seminiferous tract (MVD) assay, inhibition of electrically stimulated constriction; format: cell-based; conditions: agonist activity, read-out: MVD (IC50 ± S.E.)
T1 construct: using mouse seminiferous tract in place of guinea pig ileum; from tissue; host or cells: mouse seminiferous tract (vas deferens, MVD), organ bath
T1 sequence (P32300 whole entry): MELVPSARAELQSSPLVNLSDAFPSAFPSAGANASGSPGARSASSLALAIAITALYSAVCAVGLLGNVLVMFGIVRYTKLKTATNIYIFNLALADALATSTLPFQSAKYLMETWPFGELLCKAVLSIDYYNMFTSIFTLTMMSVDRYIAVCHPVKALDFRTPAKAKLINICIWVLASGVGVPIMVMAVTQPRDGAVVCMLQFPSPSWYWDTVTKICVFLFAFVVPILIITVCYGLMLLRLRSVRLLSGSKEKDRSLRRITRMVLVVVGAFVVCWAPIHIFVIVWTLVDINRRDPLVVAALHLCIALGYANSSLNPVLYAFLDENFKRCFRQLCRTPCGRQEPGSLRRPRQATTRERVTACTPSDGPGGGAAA

[2] = test system: SD Male rats; assay: Analgesic effect, Randoll-Seritto hind limb pressure method, intravenous administration; format: in vivo; conditions: rat, i.v.
Description: (§1) SD Male rats, weighing 110 to 130 g, were used. One group consisted of five rats. The analgesic effects were examined by a Randoll-Seritto method. […] The threshold was expressed in mm Hg. During the measurement, the upper limit of the pressure applied to a hind limb was 100 mm Hg in order to avoid damage of the tissues.
(§2) 2) When administered intravenously (i.v.), a volume of 2 ml/kg weight was administered to a tail vein and, when administered subcutaneously (s.c.), a volume of 2 ml/kg weight was subcutaneously administered to the back. In the case of intravenous administration, a 1 mg/kg, 3 mg/kg or 10 mg/kg compound of Ex.1 administration group, a 1 mg/kg, 3 mg/kg or 10 mg/kg compound of Ex.4 administration group, a 2 ml/kg physiological saline administration group and a 5 mg/kg morphine hydrochloride administration group were made, respectively. In the case of subcutaneous administration, a 10 mg/kg, 30 mg/kg or 100 mg/kg compound of Ex.1 administration group, a 10 mg/kg, 30 mg/kg or 100 mg/kg compound of Ex.4 administration group, a 2 ml/kg physiological saline administration group and a 5 mg/kg morphine hydrochloride administration group were made, respectively. Observation of the analgesic action was performed 15 minutes, 30 minutes, 1 hour and 2 hours after administration in the case of intravenous administration, 30 minutes, 1 hour, 2 hours and 3 hours after administration in the case of subcutaneous administration, respectively.
(§3) In order to perform a significant difference test between respective administration groups and control groups, and between values at respective times before administration and after administration, a Dunnet multiple comparative test method was used. In the statistical processing for performing a significant difference test between morphine hydrochloride administration groups and control groups, Student t-test was used. For performing a significant difference test between values at respective times before administration and after administration in morphine hydrochloride administration groups, a Dunnet multiple comparative test method was used. A significant level was at 5 or lower % risk rate (two-tailed test).

[3] = test system: SD Male rats; assay: Analgesic effect, Randoll-Seritto hind limb pressure method, intracerebroventricular administration; format: in vivo; conditions: rat, i.c.v.
From the text: as §1
1) When performing intracerebroventricular administration (i.c.v.), a rat was fixed to a brain stereotactic fixing apparatus under slight ether anesthesia, the skin at a head was dissected, and an administration cannula was inserted into a place at a transverse of […] from a bregma position and a depth of 3.5 to 4.0 mm. The administration volume was 10 μl/animal. Observation of the analgesic action was performed before administration, and at 30 minutes, and 1, 2, 3, 4 and 5 hours after administration. Doses of both compounds were 0.1, 1 and 10 μg/animal. Separately, a group to which 5 mg/kg of naltrexone hydrochloride was administered subcutaneously immediately after compound of Ex.1 10 μg/animal i.c.v and a group to which 5 mg/kg of naltrexone hydrochloride was administered subcutaneously immediately after compound of Ex.4 10 μg/animal i.c.v. was made. In addition, as morphine hydrochloride at a dose of 3 μg/animal i.c.v. group was used as a positive control group and a physiological saline 10 μl/animal i.c.v. group as a control group was made, respectively.
as §3

[4] = test system: SD Male rats; assay: Analgesic effect, Randoll-Seritto hind limb pressure method, subcutaneous administration; format: in vivo; conditions: rat, s.c.
Description: as §1, §2, §3

[5] = 10 mg/kg, before administration

Cc1cc(O)cc(C)c1C[C@H](N)C(=O)NCCCCCCNC(=O)[C@@H](N)Cc1c(C)cc(O)cc1C [Ex.4, 1,6-Bis(Dmt-amino)hexane.2HCl]
IC50 [1]: > 10 µM
Threshold (mmHg) ([2]; 3 mg/kg, 0.25 hr): 57 ± 4 mmHg
Threshold (mmHg) ([2]; 3 mg/kg, 0.5 hr): 54 ± 3 mmHg
Threshold (mmHg) ([2]; 3 mg/kg, 1 hr): 54 ± 5 mmHg
Threshold (mmHg) ([2]; 3 mg/kg, 2 hr): 53 ± 3 mmHg
Threshold (mmHg) ([2]; 3 mg/kg, before administration): 48 ± 2 mmHg
Threshold (mmHg) ([2]; 10 mg/kg, 0.25 hr): 54 ± 3 mmHg
Threshold (mmHg) ([2]; 10 mg/kg, 0.5 hr): 53 ± 3 mmHg
Threshold (mmHg) ([2]; 10 mg/kg, 1 hr): 57 ± 2 mmHg
Threshold (mmHg) ([2]; 10 mg/kg, 2 hr): 52 ± 2 mmHg
Threshold (mmHg) [2, 5]: 49 ± 2 mmHg
Change in escape reaction threshold / analgesic effect, in words ([2]; all doses (1, 3, 10 mg/kg)): significant change in the threshold was not seen at any measuring time at any dose; also recorded: no analgesic effect was seen
Threshold (mmHg) ([3]; 0.1 μg/animal, 0.5 hr): 47 ± 2 mmHg
Threshold (mmHg) ([3]; 0.1 μg/animal, 1 hr): 47 ± 1 mmHg
Threshold (mmHg) ([3]; 0.1 μg/animal, 2 hr): 50 ± 2 mmHg
Threshold (mmHg) ([3]; 0.1 μg/animal, 3 hr): 49 ± 2 mmHg
Threshold (mmHg) ([3]; 0.1 μg/animal, 4 hr): 49 ± 2 mmHg
Threshold (mmHg) ([3]; 0.1 μg/animal, 5 hr): 47 ± 1 mmHg
Threshold (mmHg) ([3]; 0.1 μg/animal, before administration): 45 ± 2 mmHg
Change in escape reaction threshold / analgesic effect, in words ([3]; 1 μg/animal): significant increase in the threshold was seen 4 hours and 5 hours after administration
Threshold (mmHg) ([3]; 1 μg/animal, 0.5 hr): 51 ± 2 mmHg
Threshold (mmHg) ([3]; 1 μg/animal, 1 hr): 51 ± 2 mmHg
Threshold (mmHg) ([3]; 1 μg/animal, 2 hr): 51 ± 3 mmHg
Threshold (mmHg) ([3]; 1 μg/animal, 3 hr): 50 ± 2 mmHg
Threshold (mmHg) ([3]; 1 μg/animal, 4 hr): 53 ± 2*^,$ mmHg
Threshold (mmHg) ([3]; 1 μg/animal, 5 hr): 52 ± 1*^,$ mmHg
Threshold (mmHg) ([3]; 1 μg/animal, before administration): 46 ± 1 mmHg
Change in escape reaction threshold / analgesic effect, in words ([3]; 10 μg/animal): significant change in the threshold was not seen at any time after administration
Threshold (mmHg) ([3]; 10 μg/animal + Naltrexon 5 mg/kg s.c., 0.5 hr): 55 ± 2*^,$ mmHg
Threshold (mmHg) ([3]; 10 μg/animal + Naltrexon 5 mg/kg s.c., 1 hr): 52 ± 2*^,$ mmHg
Threshold (mmHg) ([3]; 10 μg/animal + Naltrexon 5 mg/kg s.c., 2 hr): 51 ± 2 mmHg
Threshold (mmHg) ([3]; 10 μg/animal + Naltrexon 5 mg/kg s.c., 3 hr): 51 ± 1 mmHg
Threshold (mmHg) ([3]; 10 μg/animal + Naltrexon 5 mg/kg s.c., 4 hr): 52 ± 1*^,$ mmHg
Threshold (mmHg) ([3]; 10 μg/animal + Naltrexon 5 mg/kg s.c., 5 hr): 50 ± 1 mmHg
Threshold (mmHg) ([3]; 10 μg/animal + Naltrexon 5 mg/kg s.c., before administration): 46 ± 1 mmHg
Change in escape reaction threshold / analgesic effect, in words ([3]; 10 μg/animal followed by naltrexone 5 mg/kg s.c.): significant increase in the threshold was seen 30 minutes, 1 hour and 4 hours after administration
Threshold (mmHg) ([3]; 10 μg/animal, 0.5 hr): 50 ± 2 mmHg
Threshold (mmHg) ([3]; 10 μg/animal, 1 hr): 47 ± 0 mmHg
Threshold (mmHg) ([3]; 10 μg/animal, 2 hr): 49 ± 2 mmHg
Threshold (mmHg) ([3]; 10 μg/animal, 3 hr): 48 ± 2 mmHg
Threshold (mmHg) ([3]; 10 μg/animal, 4 hr): 48 ± 2 mmHg
Threshold (mmHg) ([3]; 10 μg/animal, 5 hr): 49 ± 1 mmHg
Threshold (mmHg) ([3]; 10 μg/animal, before administration): 46 ± 1 mmHg
Analgesic effect compared with compound of Ex.1, in words [4]: weaker and has a shorter duration time than in compound of Ex.1
Change in escape reaction threshold / analgesic effect, in words ([4]; 10 mg/kg): tendency of a slight increase in the threshold was seen
Threshold (mmHg) ([4]; 10 mg/kg, 0.5 hr): 58 ± 3 mmHg
Threshold (mmHg) ([4]; 10 mg/kg, 1 hr): 58 ± 5 mmHg
Threshold (mmHg) ([4]; 10 mg/kg, 2 hr): 55 ± 5 mmHg
Threshold (mmHg) ([4]; 10 mg/kg, 3 hr): 53 ± 1 mmHg
Threshold (mmHg) [4, 5]: 47 ± 2 mmHg
Change in escape reaction threshold / analgesic effect, in words ([4]; 30 mg/kg): significant increase was seen 2 hours after administration; also recorded: exhibited the significant analgesic effect 2 hours after administration
Threshold (mmHg) ([4]; 30 mg/kg, 0.5 hr): 59 ± 3 mmHg
Threshold (mmHg) ([4]; 30 mg/kg, 1 hr): 56 ± 3 mmHg
Threshold (mmHg) ([4]; 30 mg/kg, 2 hr): 65 ± 5^$$ mmHg
Threshold (mmHg) ([4]; 30 mg/kg, 3 hr): 59 ± 4 mmHg
Threshold (mmHg) ([4]; 30 mg/kg, before administration): 47 ± 2 mmHg
Change in escape reaction threshold / analgesic effect, in words ([4]; 100 mg/kg): significant difference was seen in the measured values 30 minutes, 1 hour and 2 hours after administration; also recorded: significant analgesic effect was exhibited from 30 minutes after administration
Threshold (mmHg) ([4]; 100 mg/kg, 0.5 hr): 69 ± 6**^,$$ mmHg
Threshold (mmHg) ([4]; 100 mg/kg, 1 hr): 68 ± 3*^,$ mmHg
Threshold (mmHg) ([4]; 100 mg/kg, 2 hr): 75 ± 8**^,$$ mmHg
Threshold (mmHg) ([4]; 100 mg/kg, 3 hr): 58 ± 2 mmHg
Threshold (mmHg) ([4]; 100 mg/kg, before administration): 48 ± 2 mmHg
